Measurements: US10016382B2, “Method for decreasing skeletal muscle damage and/or oxidative stress in mammals” (LONZA INC., priority 2014, dated 2018)
Values joined by “and” are separate entries in the source; they are usually repeats but may differ in a detail not shown here. Identical values can stand only once.

Key:
Assay type in all cases: in vivo, dog
Labrador Retrievers [1] = experiment: Time of final 15 mile run, Example 2 part one (14 week crossover study); conditions: Ex.2 part one, 250 mg/d, 15 mile run at end of 14 week study, mean ± SEM
Protocol: Part One: For part one of the study, fifty-six Labrador Retrievers were divided into two equal groups of 28 (14 males, 14 females) based on gender, BW, genetics, age, excitement level, frame size, and lean body mass. The dogs were out of a minimum of 10 different bitches and at least as many sires. Prior to the start of the study, the dogs were tested for lean mass, muscle damage, and antioxidant status as described in Example 1. In addition to the low carnitine basal diet, twenty-eight of the Labs received 250 mg/day of L-carnitine (batch D23013) and 3.75 g/d of sugar, while twenty-eight of the Labs received 4 g/d of sugar. Both the L-carnitine and control performance dogs were put through a weekly running program consisting of two evenly distributed endurance runs. Groups ranging between 6 and 10 dogs were run together, including both treatments in each group. The endurance runs increased incrementally by 0.5 miles per week (5 miles/session increasing to 10 miles per session over an 11 week period). The dogs were allowed a 1 day rest between runs and a 3 day rest before a scheduled exercise distance increase. The dogs were put through maintenance runs of 5 miles twice in the 12th week and then 2 miles twice in the 13th week. All dogs had at least 4 days of rest prior to the final 15 miles run in the 14th week. Each performance dog wore the Actical activity monitor and GPS tracking collar during the last 15 mile endurance run. The final run was conducted in a manner analogous to that of Example 1. All activity was accurately and precisely calculated using the GPS tracking monitors. Immediately following the 15 mile endurance run, each dog was placed in a kennel and evaluated for recovery time in body temperature (every 15 minutes for 2 hours) and heart rate (every 2 minutes for up to 20 minutes until basal beats per minute (BPM) was reached). Body temperature and heart rate were measured as described in Example 1.

Labrador Retrievers [2] = experiment: Activity (APM, APM/kg) by Actical monitor and GPS collar, Example 2 part one; conditions: for APM / APM/kg: crossover L-carnitine dogs
Description: Both the L-carnitine and control performance dogs were put through a weekly running program consisting of two evenly distributed endurance runs. Groups ranging between 6 and 10 dogs were run together, including both treatments in each group. The endurance runs increased incrementally by 0.5 miles per week (5 miles/session increasing to 10 miles per session over an 11 week period). The dogs were allowed a 1 day rest between runs and a 3 day rest before a scheduled exercise distance increase. The dogs were put through maintenance runs of 5 miles twice in the 12th week and then 2 miles twice in the 13th week. All dogs had at least 4 days of rest prior to the final 15 miles run in the 14th week. The first exercise session during the week consisted only of endurance style running, while the second session included short 100 m sprints at each mile interval in order to incorporate measurable anaerobic exercise into the weekly regimen. The endurance runs were slightly slower to enhance fat oxidation and represent an exercise intensity equivalent to 50%-65% VO2 max. Each performance dog wore the Actical activity monitor and GPS tracking collar during the last 15 mile endurance run. The final run was conducted in a manner analogous to that of Example 1. All activity was accurately and precisely calculated using the GPS tracking monitors. Immediately following the 15 mile endurance run, each dog was placed in a kennel and evaluated for recovery time in body temperature (every 15 minutes for 2 hours) and heart rate (every 2 minutes for up to 20 minutes until basal beats per minute (BPM) was reached). Body temperature and heart rate were measured as described in Example 1.

Labrador Retrievers [3] = experiment: Energy expenditure on treadmill (Oxymax open-circuit calorimeter), Example 2 part three; conditions: for Max energy expenditure / Mean energy expenditure: females
Protocol: Sixteen Labrador Retrievers ranging in age from 1.5 to 3 years were fed low carnitine basal diets with and without added L-carnitine for a 37 week period that included part one and two of the study. Eight (4 male and 4 female) of the test L-carnitine dogs were each fed 3.75 g sugar and 250 mg of L-carnitine, while the other eight dogs (4 male and 4 female) were fed only 4 g of sugar each day for the experimental period. The sixteen test dogs were fed the same diet for parts one, two, and three of the study. During part three of the study, the 16 test dogs were exclusively exercised on the industry sized canine treadmill. Initial Oxymax data was developed for each of the test dogs at various times and speeds in order to determine appropriate speeds on the treadmill required to achieve maximum VO2 concentration. The dogs were run for 15 minutes at 6.5 mph to determine VO2 max. The 16 test dogs were then ran at 50% VO2 max (equivalent to 4 mph) on the treadmill for 30 minutes to determine total energy expenditure (heat production). The system used to acquire information on volume of oxygen consumption and energy expenditure was an Open-Circuit calorimeter, which employed air from the surrounding environment. A mask specially designed for dogs was used to recover the gas sample and ventilate the dog. A small sample was drawn for gas analysis and dried to assure that the readings were made in a sample that was not under the influence of water vapor air exiting the chamber. The O2 and CO2 sensors were connected to software, and instant values of O2 and CO2 were measured. The 16 test dogs (8 L-carnitine dogs, 4 male and 4 female, and 8 control dogs, 4 male and 4 female) were exercised at a warm up speed of 2 mph for 5 minutes prior to running at VO2 max for 15 minutes at 6.5 mph. The next week, the test dogs ran again at a warm up speed of 2 mph for 5 minutes and then at 50% VO2 max for 30 minutes at 4 mph. Energy expenditure was calculated using the formula for dogs (EE (kcal/d)=3.94 VO2+1.11 V CO2) (Weir, […]). The maximum and mean energy expenditure was also calculated. Energy expenditure was reported at Kcal/metabolic body weight (Kg^0.75)/d as normally expressed in the literature for dogs.

[4] = Ex.2 part one, 250 mg/d, 19 L-carnitine dogs that were control dogs in Example 1
[5] = data collected in Example 1 (then control dogs)
[6] = Ex.2 part three, 250 mg/d, 6.5 mph (VO2 max)
[7] = Ex.2 part three, 250 mg/d, 50% VO2 max (4 mph, 30 min)
[8] = combined speeds 4.0 and 6.5 (50% VO2 Max and VO2 Max), diet main effect, both genders
[9] = combined speeds 4.0 and 6.5 (50% VO2 Max and VO2 Max), female dogs
[10] = combined speeds 4.0 and 6.5 (50% VO2 Max and VO2 Max), male dogs
[11] = treadmill speed 4 for 30 min (50% VO2 Max), diet main effect, both genders
[12] = treadmill speed 4 for 30 min (50% VO2 Max), female dogs
[13] = treadmill speed 4 for 30 min (50% VO2 Max), male dogs
[14] = treadmill speed 6.5 for 15 min (VO2 Max), diet main effect, both genders
[15] = treadmill speed 6.5 for 15 min (VO2 Max), female dogs
[16] = treadmill speed 6.5 for 15 min (VO2 Max), male dogs

## C[N+](C)(C)C[C@H](O)CC(=O)[O-] [L-carnitine]
Labrador Retrievers [1]; Female
  Final Run Time: 73.7 ± 0.86 min
Labrador Retrievers [1]; Male
  Final Run Time: 76.11 ± 1.64 min
Labrador Retrievers [1]; both sexes
  Final Run Time: 74.90 min and 74.9 ± 0.94 min
Labrador Retrievers [2]; [4]
  Crossover activity gain, APM: 27,697
  Crossover activity gain, APM/kg: 975
Labrador Retrievers [2]; Example 2 part one, 250 mg/d
  APM: 63,272
  APM/kg: 2274
Labrador Retrievers [2]; [5]
  APM: 37,621
  APM/kg: 1363
Labrador Retrievers [3]; Ex.2 part three, 250 mg/d, female running at 50% of VO2 Max
  Additional heat expenditure vs non-L-carnitine diet: 122 kcal/kg BW^0.75/d
Labrador Retrievers [3]; [6]
  Max energy expenditure: 961 kcal/kgBW^0.75/d
  Mean energy expenditure: 815 kcal/kgBW^0.75/d
Labrador Retrievers [3]; [7]
  Max energy expenditure: 794 kcal/kg^0.75/d
  Mean energy expenditure: 598 kcal/kg^0.75/d
Labrador Retrievers [3]; Ex.2 part three, 250 mg/d, males, Tables 35 and 36
  Max and mean energy expenditure vs low carnitine dogs: not significantly different
Labrador Retrievers [3]; Ex.2 part three, 250 mg/d, working female running at 50% VO2 Max (4 mph) for one hour
  Quantity of low Carnitine basal food saved: 15.18 g
Labrador Retrievers [3]; [8]
  Max EE: 793 Kcal/Kg^0.75/d
  Mean EE: 675 Kcal/Kg^0.75/d
Labrador Retrievers [3]; [9]
  Max EE: 838 Kcal/Kg^0.75/d
  Mean EE: 679 Kcal/Kg^0.75/d
Labrador Retrievers [3]; [10]
  Max EE: 748 Kcal/Kg^0.75/d
  Mean EE: 671 Kcal/Kg^0.75/d
Labrador Retrievers [3]; [11]
  Max EE: 716 Kcal/Kg^0.75/d
  Mean EE: 576 Kcal/Kg^0.75/d
Labrador Retrievers [3]; [12]
  Max EE: 794 a Kcal/Kg^0.75/d
  Mean EE: 598 a Kcal/Kg^0.75/d
Labrador Retrievers [3]; [13]
  Max EE: 637 ab Kcal/Kg^0.75/d
  Mean EE: 554 ab Kcal/Kg^0.75/d
Labrador Retrievers [3]; [14]
  Max EE: 909 Kcal/Kg^0.75/d
  Mean EE: 801 Kcal/Kg^0.75/d
Labrador Retrievers [3]; [15]
  Max EE: 961 Kcal/Kg^0.75/d
  Mean EE: 815 Kcal/Kg^0.75/d
Labrador Retrievers [3]; [16]
  Max EE: 858 Kcal/Kg^0.75/d
  Mean EE: 788 Kcal/Kg^0.75/d
